Measured values published in patent US9365583B2, “Substituted pyrazoles and uses thereof” (Genentech, Inc., priority 2013, dated 2016).

molecular target: T1, N-terminally GST-tagged DLK (catalytic domain amino acid 1-520) (Homo sapiens, UniProt Q12852); assay: DLK TR-FRET inhibition assay; assay type: biochemical; conditions: 5 nM GST-DLK, 40 nM HIS-MKK4 K131M substrate, 30 μM ATP, 60 minutes at ambient temperature
T1 construct: N-terminally GST-tagged DLK (catalytic domain amino acid 1-520); purchased Carna Bioscience
T1 sequence (Q12852 1-520): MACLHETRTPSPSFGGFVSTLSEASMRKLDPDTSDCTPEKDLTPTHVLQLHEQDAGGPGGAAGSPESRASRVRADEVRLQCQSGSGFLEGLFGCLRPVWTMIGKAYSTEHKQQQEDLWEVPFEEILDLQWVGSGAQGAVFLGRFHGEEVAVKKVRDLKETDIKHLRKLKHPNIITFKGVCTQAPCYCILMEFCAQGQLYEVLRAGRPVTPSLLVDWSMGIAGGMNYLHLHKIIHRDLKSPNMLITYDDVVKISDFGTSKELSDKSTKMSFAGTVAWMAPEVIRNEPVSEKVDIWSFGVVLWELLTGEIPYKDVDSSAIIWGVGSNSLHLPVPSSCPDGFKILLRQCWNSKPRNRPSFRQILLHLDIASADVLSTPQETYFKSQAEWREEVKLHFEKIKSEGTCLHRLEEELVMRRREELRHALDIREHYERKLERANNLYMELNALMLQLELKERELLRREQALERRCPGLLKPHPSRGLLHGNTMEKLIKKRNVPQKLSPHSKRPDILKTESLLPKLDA
Outline: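 5 nM GST-DLK (aa 1-520), 40 nM HIS-MKK4 K131M and 30 μM ATP reacted 60 min at ambient temperature in HEPES pH 7.5 buffer with 10 mM MgCl2, compound 1:3 serially diluted from 20 uM. TR-FRET detection of phospho-MKK4 used Eu-cryptate anti-phospho-MKK4 plus D2 anti-HIS, read after 3 h (665/615 nm).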

Molecule | Ki
CC(C)n1nc(-c2cnc(N)c(C(F)(F)F)c2)cc1[C@H]1[C@@H]2C[C@@H](N3CC4(COC4)C3)C[C@@H]21 [compound 51, 5-(5-((1R,3s,5S,6r)-3-(2-oxa-6-azaspiro[3.3]heptan-6-yl)bicyclo [3.1.0]hexan-6-yl)-1-isopropyl-1H-pyrazol-3-yl)-3-(trifluoro-methyl)pyridin-2-amine] | 3.55 nM
CC(C)n1nc(-c2cnc(N)c(C(F)(F)F)c2)cc1[C@@H]1[C@H]2CC[C@@H](N3CCOCC3)[C@H]21 (single isomer, unassigned) [compound 139, 5-(1-isopropyl-5-(2-morpholinobicyclo[3.1.0]hexan-6-yl)-1H-pyrazol-3-yl)-3-(trifluoromethyl) pyridin-2-amine] | 65.7 nM
CC(C)n1nc(-c2cnc(N)c(OC(F)F)c2)cc1[C@H]1[C@@H]2C[C@H](N3CCOCC(F)(F)C3)C[C@@H]21 [compound 181, 5-(5-((1R,3r,5S,6r)-3-(6,6-difluoro-1,4-oxazepan-4-yl)bicyclo [3.1.0]hexan-6-yl)-1-isopropyl-1H-pyrazol-3-yl)-3-(difluoromethoxy) pyridin-2-amine] | 2.4 nM
CC(C)n1nc(-c2cnc(N)c(OC(F)(F)F)c2)cc1[C@H]1[C@@H]2C[C@@]3(CCN3CC(F)F)C[C@@H]21 [compound 147, 5-(5-((1′R,2r,5′S,6′r)-1-(2,2-difluoro-ethyl)spiro[azetidine-2,3′-bicyclo[3.1.0]hexan]-6′-yl)-1-isopropyl-1H-pyrazol-3-yl)-3-(trifluoro-methoxy)pyridin-2-amine] | 5.7 nM
CCN1CCN([C@@H]2C[C@@H]3[C@H](C2)[C@H]3c2cc(-c3cnc(N)c(OC(F)(F)F)c3)nn2C(C)C)CC1 [compound 15, 5-(5-((1R,3s,5S,6r)-3-(4-ethylpiperazin-1-yl)bicyclo[3.1.0]hexan-6-yl)-1-isopropyl-1H-pyrazol-3-yl)-3-(trifluoromethoxy) pyridin-2-amine] | 3.58 nM
CC(C)n1nc(-c2cnc(N)c(C(F)(F)F)c2)cc1[C@H]1[C@@H]2C[C@@H](N3CCN(C4COC4)CC3)C[C@@H]21 [compound 117, 5-(1-isopropyl-5-((1R,3s,5S,6r)-3-(4-(oxetan-3-yl)piperazin-1-yl)bicyclo[3.1.0]hexan-6-yl)-1H-pyrazol-3-yl)-3-(trifluoromethyl) pyridin-2-amine] | 5.26 nM
3-(difluoromethoxy)-5-(5- ((1R,3r,5S,6r)-3-(3-fluoroazetidin-1- yl)bicyclo[3.1.0]hexan-6-yl)-1- isopropyl-1H-pyrazol-3-yl) pyridin-2-amine [compound 60] | 2.26 nM
CC(C)n1nc(-c2cnc(N)c(OC(F)F)c2)cc1[C@H]1[C@@H]2C[C@@H](O)C[C@@H]21 [compound 6, (1R,3s,5S,6r)-6-(3-(6-amino-5-(difluoromethoxy)pyridin-3-yl)-1-isopropyl-1H-pyrazol-5-yl) bicyclo[3.1.0]hexan-3-ol] | 14.4 nM
Nc1ncc(-c2cc([C@H]3[C@@H]4C[C@H](N5CCOCC5)C[C@@H]43)n(CC3CCC3)n2)cc1OC(F)F [compound 127, 5-(1-(cyclobutylmethyl)-5-((1R, 3r,5S,6r)-3-morpholinobicyclo [3.1.0]hexan-6-yl)-1H-pyrazol-3-yl)-3-(difluoromethoxy)pyridin-2-amine] | 3.55 nM
COC1CN([C@H]2C[C@@H]3[C@H](C2)[C@H]3c2cc(-c3cnc(N)c(OC(F)(F)F)c3)nn2C(C)C)C1 [compound 39, 5-(1-isopropyl-5-((1R,3r,5S,6r)-3-(3-methoxyazetidin-1-yl)bicyclo[3.1.0]hexan-6-yl)-1H-pyrazol-3-yl)-3-(trifluoromethoxy) pyridin-2-amine] | 2.06 nM
CC(C)n1nc(-c2cnc(N)c(OC(F)F)c2)cc1[C@H]1[C@@H]2C[C@@H](N3CCOC[C@H]3C)C[C@@H]21 [compound 82, 3-(difluoromethoxy)-5-(1-isopropyl-5-((1R,3s,5S,6R)-3-((R)-3-methylmorpholino)bicyclo[3.1.0]hexan-6-yl)-1H-pyrazol-3-yl) pyridin-2-amine] | 1.43 nM
CC(C)n1nc(-c2cnc(N)c(C(=O)N3CCCC3)c2)cc1[C@H]1[C@@H]2C[C@@H](N3CC(F)C3)C[C@@H]21 [compound 106, (2-amino-5-(5-((1R,3s,5S,6r)-3-(3-fluoroazetidin-1-yl)bicyclo [3.1.0]hexan-6-yl)-1-isopropyl-1H-pyrazol-3-yl)pyridin-3-yl) (pyrrolidin-1-yl)methanone] | > 321 nM
CO[C@H]1C[C@@H]2[C@H](C1)[C@H]2c1cc(-c2cnc(N)c(OC(F)F)c2)nn1C(C)C [compound 187, 3-(difluoromethoxy)-5-(1-isopropyl-5-((1R,3r,5S,6r)-3-methoxy-bicyclo[3.1.0]hexan-6-yl)-1H-pyrazol-3-yl)pyridin-2-amine] | 2.2 nM
CC(C)n1nc(-c2cnc(N)c(OC(F)F)c2)cc1[C@H]1[C@@H]2C[C@@H](N3CC(F)(F)C3)C[C@@H]21 [compound 42, 5-(5-((1R,3s,5S,6r)-3-(3,3-difluoroazetidin-1-yl)bicyclo[3.1.0]hexan-6-yl)-1-isopropyl-1H-pyrazol-3-yl)-3-(difluoromethoxy) pyridin-2-amine] | 4.53 nM
CC(C)n1nc(-c2cnc(N)c(OC(F)F)c2)cc1[C@H]1[C@@H]2C[C@H](NCC(F)(F)F)C[C@@H]21 [compound 120, 3-(difluoromethoxy)-5-(1-isopropyl-5-((1R,3r,5S,6r)-3-((2,2,2-trifluoroethyl)amino)bicyclo [3.1.0]hexan-6-yl)-1H-pyrazol-3-yl) pyridin-2-amine] | 6.91 nM

Continued, values first:

Ki | Molecule
1.1 nM | Nc1ncc(-c2cc([C@H]3[C@@H]4C[C@@H](N5CCCOCC5)C[C@@H]43)n(CC(F)F)n2)cc1OC(F)F [compound 232, 5-(5-((1R,3s,5S,6r)-3-(1,4-oxazepan-4-yl)bicyclo[3.1.0]hexan-6-yl)-1-(2,2-difluoroethyl)-1H-pyrazol-3-yl)-3-(difluoromethoxy) pyridin-2-amine]
5.1 nM | CC(C)n1nc(-c2cnc(N)c(OC(F)F)c2)cc1[C@H]1[C@@H]2C[C@H](F)C[C@@H]21 [compound 213, 3-(difluoromethoxy)-5-(5-((1R,3r,5S,6r)-3-fluorobicyclo[3.1.0]hexan-6-yl)-1-isopropyl-1H-pyrazol-3-yl)pyridin-2-amine]
4.7 nM | COCCN(C)[C@@H]1C[C@@H]2[C@H](C1)[C@H]2c1cc(-c2cnc(N)c(C(F)(F)F)c2)nn1C(C)C [compound 291, 5-(1-isopropyl-5-((1R,3s,5S,6r)-3-((2-methoxyethyl)(methyl)amino)bicyclo[3.1.0]hexan-6-yl)-1H-pyrazol-3-yl)-3-(trifluoromethyl) pyridin-2-amine]
4.4 nM | CO[C@H]1CCN([C@H]2C[C@@H]3[C@H](C2)[C@H]3c2cc(-c3cnc(N)c(OC(F)F)c3)nn2C(C)C)C1 [compound 212, 3-(difluoromethoxy)-5-(1-isopropyl-5-((1R,3r,5S,6S)-3-((S)-3-methoxypyrrolidin-1-yl)bicyclo [3.1.0]hexan-6-yl)-1H-pyrazol-3-yl)pyridin-2-amine]
7.7 nM | CC(C)n1nc(-c2cnc(N)c(OC(F)(F)F)c2)cc1[C@H]1[C@@H]2C[C@H](NCC(F)F)C[C@@H]21 [compound 282, 5-(5-((1R,3r,5S,6r)-3-((2,2-difluoroethyl)amino)bicyclo[3.1.0]hexan-6-yl)-1-isopropyl-1H-pyrazol-3-yl)-3-(trifluoromethoxy) pyridin-2-amine]
220 nM | Nc1ncc(-c2cc([C@H]3[C@@H]4C[C@H](N5CCOCC5)C[C@@H]43)nn2CC2CC2)cc1OC(F)F [compound 267, 5-(1-(cyclopropylmethyl)-3-((1R,3r,5S,6r)-3-morpholinobicyclo [3.1.0]hexan-6-yl)-1H-pyrazol-5-yl)-3-(difluoromethoxy) pyridin-2-amine]
< 0.1 nM | CC(C)n1nc(-c2cnc(N)c(C(F)(F)F)c2)cc1[C@H]1[C@@H]2C[C@H](N3CCN4CCCC4C3)C[C@@H]21 (stereo partly drawn) [compound 262, 5-(5-((1R,3r,5S,6r)-3-(hexa-hydropyrrolo[1,2-a]pyrazin-2(1H)-yl)bicyclo[3.1.0]hexan-6-yl)-1-isopropyl-1H-pyrazol-3-yl)-3-(trifluoromethyl)pyridin-2-amine]
1.4 nM | CO[C@H]1CCN([C@@H]2C[C@@H]3[C@H](C2)[C@H]3c2cc(-c3cnc(N)c(OC(F)F)c3)nn2C(C)C)C1 [compound 215, 3-(difluoromethoxy)-5-(1-isopropyl-5-((1R,3s,5S,6S)-3-((S)-3-methoxypyrrolidin-1-yl)bicyclo [3.1.0]hexan-6-yl)-1H-pyrazol-3-yl)pyridin-2-amine]
4.3 nM | CC(C)n1nc(-c2cnc(N)c(OC(F)F)c2)cc1[C@H]1[C@@H]2C[C@H](N3CC[C@H](F)C3)C[C@@H]21 [compound 285, 3-(difluoromethoxy)-5-(5-((1R,3r,5S,6S)-3-((S)-3-fluoropyrrolidin-1-yl)bicyclo[3.1.0]hexan-6-yl)-1-isopropyl-1H-pyrazol-3-yl) pyridin-2-amine]
